Laboratory results taken from article PMC8206213, “An L-2-hydroxyglutarate biosensor based on specific transcriptional regulator LhgR” (Nature Communications, 2021).
Where “and” joins values, the source holds several entries; their conditions need not be identical. Equal values may be shown once. Entries after “also recorded” stand apart in the source; their conditions may differ.

Experiments:
[1] = test system: LhgO; experiment: Enzymatic assay of LhgO in crude extracts of P. putida KT2440 derivatives grown on different carbon sources (induction of lhgO under LhgR control); format: cell-based, Pseudomonas putida; conditions: gene segment F2-lhgR-F1-lhgO in P. putida KT2440 derivatives
Description: The cells were harvested at mid-log phase, washed twice and resuspended in phosphate-buffered saline (PBS), then lysed by sonication on ice after the addition of 1 mM phenylmethylsulfonyl fluoride (PMSF). […] Protein concentrations of the supernatants were determined using the Bradford protein assay kit (Sangon, China). […] The 800 μL reaction solution contained 0.1 mM […], 0.05 mM DCPIP, 0.2 mM phenazine methosulfate (PMS) in PBS and 40 μL crude extracts.

[2] = test system: LhgR; experiment: EMSA, effect of compounds on LhgR binding to the lhgO promoter region F1; design: species or system Pseudomonas putida W619; conditions: 50 mM compound, 10 nM F1, 60 nM LhgR
Description: Electrophoretic mobility shift assays (EMSAs) were carried out using the DNA fragment (F1 or F2) and purified LhgR. The DNA fragments were first amplified by primer pairs F1-F/F1-R and F2-F/F2-R, respectively. Then, either fragment at a concentration of 10 nM DNA was incubated with LhgR (0–160 nM) in 20 μL EMSA binding buffer (10 mM Tris-HCl [pH 7.4], 50 mM KCl, 0.5 mM EDTA, 10% [vol/vol] glycerol, and 1 mM dithiothreitol [DTT]). The binding reactions were carried out at 30 °C for 30 min. Electrophoresis was performed on 6% native polyacrylamide gels at 4 °C and 170 V (constant voltage) for about 45 min, followed by staining with SYBR green I (TaKaRa, China) and photographing. Analysis of the interaction between lhgO promoter region (F1) and LHGFR was performed using the same procedure.
To characterize the effector of LhgR, purified LhgR was first incubated with L-lysine, 5-aminovalerate, glutarate, L-2-HG, D-2-HG, 2-KG, or succinate at 30 °C for 15 min, followed by incubation with the added DNA fragments at 30 °C for 30 min. The mixtures were subsequently subjected to electrophoresis.

[3] = test system: LHGFR0N7C; experiment: Specificity of purified LHGFR0N7C, emission ratio with 240 μM compounds; format: binding, Pseudomonas putida W619; conditions: 240 μM compound
[4] = test system: LHGFR0N7C; experiment: Influence of other compounds on the response of purified LHGFR0N7C to L-2-HG; format: binding, Pseudomonas putida W619
Procedure, shortened: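 Purified L-2-HG biosensors were mixed 3:1 with test compounds in 50 mM Tris-HCl pH 7.4, excited at 430 nm, and the 528 nm (Venus)/485 nm (mTFP) emission was read. Responses were fitted with a Hill model giving apparent Kd and Hill slope.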

[5] = test system: LHGFR0N3C expressed in E. coli BL21(DE3); experiment: Specificity of LHGFR0N3C expressed in E. coli BL21(DE3), 1 mM compounds; format: cell-based; conditions: for Emission ratio: 1 mM compound, Fig. 5c
Description: To characterize the sensitivity and specificity of LHGFR expressed in E. coli BL21(DE3), 90 μL cell suspensions following 8 h carbon starvation were mixed with 10 μL increasing concentrations of L-2-HG or other compounds, and then added into a black 96-well plate (total 100 μL/per well), the fluorescence intensities were determined using an EnSight microplate reader (PerkinElmer, USA) and the following instrument settings: excitation at 430 nm, emission at 485 nm (mTFP) and 528 nm (Venus), time intervals of 5 min, the temperature at 37 °C, and shake at 180 rpm.

SMILES: O=C(O)CC[C@H](O)C(=O)O [L-2-HG, L-2-Hydroxyglutarate]
- Induction of lhgO expression / effector molecule of LhgR [1]: can induce the expression of lhgO
- Effect on LhgR binding to the lhgO promoter region F1 [2]: prevents LhgR binding to the lhgO promoter region; also recorded: release of LhgR from fragments F1 was observed only in the presence of L-2-HG
- Emission ratio [3]: 2.5923 and 2.613 and 2.627
- Emission ratio of 528/485 ([4]; L-2-HG concentration 0.01, in the absence of 2-KG, Suppl. Fig. 9h): 1.669 and 1.681 and 1.673
- Emission ratio of 528/485 ([4]; L-2-HG concentration 0.01, in the absence of D-2-HG, Suppl. Fig. 9f): 1.668 and 1.665 and 1.6772
- Emission ratio of 528/485 ([4]; L-2-HG concentration 0.01, in the presence of 2-KG, Suppl. Fig. 9h): 1.723
- Emission ratio of 528/485 ([4]; L-2-HG concentration 0.01, in the presence of D-2-HG, Suppl. Fig. 9f): 1.965 and 1.961 and 1.978
- Emission ratio of 528/485 ([4]; L-2-HG concentration 0.1, in the absence of D-2-HG, Suppl. Fig. 9f): 1.677 and 1.673 and 1.693
- Emission ratio of 528/485 ([4]; L-2-HG concentration 0.1, in the presence of D-2-HG, Suppl. Fig. 9f): 1.971 and 1.964 and 1.956
- Emission ratio of 528/485 ([4]; L-2-HG concentration 0.2, in the absence of D-2-HG, Suppl. Fig. 9f): 1.691 and 1.69 and 1.731
- Emission ratio of 528/485 ([4]; L-2-HG concentration 0.2, in the presence of D-2-HG, Suppl. Fig. 9f): 1.971 and 1.94 and 1.9794
- Emission ratio of 528/485 ([4]; L-2-HG concentration 1, in the absence of D-2-HG, Suppl. Fig. 9f): 1.801 and 1.777 and 1.826
- Emission ratio of 528/485 ([4]; L-2-HG concentration 1, in the presence of D-2-HG, Suppl. Fig. 9f): 2.027 and 1.982 and 2.045
- Emission ratio of 528/485 ([4]; L-2-HG concentration 2, in the absence of D-2-HG, Suppl. Fig. 9f): 1.915 and 1.897 and 1.932
- Emission ratio of 528/485 ([4]; L-2-HG concentration 2, in the presence of D-2-HG, Suppl. Fig. 9f): 2.096 and 2.057 and 2.13
- Emission ratio of 528/485 ([4]; L-2-HG concentration 10, in the absence of D-2-HG, Suppl. Fig. 9f): 2.29 and 2.251 and 2.3138
- Emission ratio of 528/485 ([4]; L-2-HG concentration 10, in the presence of D-2-HG, Suppl. Fig. 9f): 2.341 and 2.308 and 2.373
- Emission ratio of 528/485 ([4]; L-2-HG concentration 20, in the absence of 2-KG, Suppl. Fig. 9h): 2.356 (2×) and 2.408
- Emission ratio of 528/485 ([4]; L-2-HG concentration 20, in the absence of D-2-HG, Suppl. Fig. 9f): 2.392 and 2.365 and 2.398
- Emission ratio of 528/485 ([4]; L-2-HG concentration 20, in the presence of 2-KG, Suppl. Fig. 9h): 2.43 and 2.42 and 2.428
- Emission ratio of 528/485 ([4]; L-2-HG concentration 20, in the presence of D-2-HG, Suppl. Fig. 9f): 2.458 and 2.457 and 2.465
- Emission ratio of 528/485 ([4]; L-2-HG concentration 100, in the absence of 2-KG, Suppl. Fig. 9h): 2.538 and 2.5321 and 2.598
- Emission ratio of 528/485 ([4]; L-2-HG concentration 100, in the absence of D-2-HG, Suppl. Fig. 9f): 2.581 and 2.561 and 2.566
- Emission ratio of 528/485 ([4]; L-2-HG concentration 100, in the presence of 2-KG, Suppl. Fig. 9h): 2.5747 and 2.606 and 2.576
- Emission ratio of 528/485 ([4]; L-2-HG concentration 100, in the presence of D-2-HG, Suppl. Fig. 9f): 2.5851 and 2.631 and 2.587
- Emission ratio of 528/485 ([4]; L-2-HG concentration 200, in the absence of 2-KG, Suppl. Fig. 9h): 2.539 and 2.563 and 2.555
- Emission ratio of 528/485 ([4]; L-2-HG concentration 200, in the absence of D-2-HG, Suppl. Fig. 9f): 2.5575 and 2.555 and 2.59
- Emission ratio of 528/485 ([4]; L-2-HG concentration 200, in the presence of 2-KG, Suppl. Fig. 9h): 2.617 and 2.618 and 2.612
- Emission ratio of 528/485 ([4]; L-2-HG concentration 200, in the presence of D-2-HG, Suppl. Fig. 9f): 2.597 and 2.613 and 2.641
- Emission ratio of 528/485 ([4]; L-2-HG concentration 1000, in the absence of 2-KG, Suppl. Fig. 9h): 2.624 and 2.621 and 2.641
- Emission ratio of 528/485 ([4]; L-2-HG concentration 1000, in the absence of D-2-HG, Suppl. Fig. 9f): 2.621 and 2.615 and 2.63
- Emission ratio of 528/485 ([4]; L-2-HG concentration 1000, in the presence of 2-KG, Suppl. Fig. 9h): 2.674 and 2.614 and 2.6567
- Emission ratio of 528/485 ([4]; L-2-HG concentration 1000, in the presence of D-2-HG, Suppl. Fig. 9f): 2.625 and 2.6112 and 2.6354
- Emission ratio of 528/485 ([4]; L-2-HG concentration 2000, in the absence of 2-KG, Suppl. Fig. 9h): 2.674 and 2.655 and 2.638
- Emission ratio of 528/485 ([4]; L-2-HG concentration 2000, in the absence of D-2-HG, Suppl. Fig. 9f): 2.642 and 2.658 and 2.618
- Emission ratio of 528/485 ([4]; L-2-HG concentration 2000, in the presence of 2-KG, Suppl. Fig. 9h): 2.683 and 2.662 and 2.678
- Emission ratio of 528/485 ([4]; L-2-HG concentration 2000, in the presence of D-2-HG, Suppl. Fig. 9f): 2.621 and 2.633 and 2.649
- Emission ratio ([4]; Suppl. Fig. 9b, L-2-HG alone or with the compound, three replicates): 2.613 and 2.611 and 2.604
- Emission ratio ([5]; 0 min): 1.025 and 0.9964 and 0.9897
- Emission ratio ([5]; 5 min): 1.0102 and 1.019 and 1.007
- Emission ratio ([5]; 10 min): 1.0776 and 1.069 and 1.057
- Emission ratio ([5]; 15 min): 1.152 and 1.136 and 1.118
- Emission ratio ([5]; 20 min): 1.219 and 1.203 and 1.181
- Emission ratio ([5]; 25 min): 1.256 and 1.2441 and 1.233
- Emission ratio ([5]; 30 min): 1.305 and 1.29 and 1.273
- Emission ratio ([5]; 35 min): 1.298 and 1.29 and 1.292
- Emission ratio ([5]; 40 min): 1.314 and 1.317 and 1.304
- Emission ratio ([5]; 45 min): 1.326 and 1.316 and 1.3122
- Emission ratio ([5]; 50 min): 1.332 and 1.331 and 1.305
- Emission ratio ([5]; 55 min): 1.343 and 1.33 and 1.32
- Emission ratio ([5]; 60 min): 1.3375 and 1.331 and 1.312
- Emission ratio ([5]; 65 min): 1.326 and 1.339 and 1.336
- Emission ratio ([5]; 70 min): 1.339 and 1.343 and 1.334
- Emission ratio ([5]; 75 min): 1.32 and 1.336 and 1.325
- Emission ratio ([5]; 80 min): 1.332 and 1.339 and 1.343
- Emission ratio ([5]; 85 min): 1.326 and 1.34 and 1.332
- Emission ratio ([5]; 90 min): 1.323 and 1.316 and 1.34
- Increase of the emission ratio in E. coli BL21(DE3) ([5]; 1 mM exogenous compound): could significantly increase the emission ratio
